# Source: ChEMBL document CHEMBL4376886, “Design, Synthesis, and Evaluation of Novel Enterovirus 71 Inhibitors as Therapeutic Drug Leads for the Treatment of Human Hand, Foot, and Mouth Disease” (J Med Chem, 2020)
# pEC50: −log10 of the molar value.
# Tests used:
# [1] = Apparent half-life of the terminal disposition phase in Sprague-Dawley rat at 5 mg/kg, po administered as single dose measured upto 24 hrs by LC-MS/MS analysis; format: ADME, organism-based; details: in vivo, read-out: t1/2 lambda z (converted)
# [2] = Inhibition of capsid protein VP1 in Enterovirus 71 (FY)-Luc infected in human RD cells assessed as reduction in virus-induced cell death preincubated for 24 hrs followed by […] substrate addition and measured after 5 mins by chemiluminescence analysis; format: cell-based, Enterovirus A71; details: Enterovirus A
# [3] = Cytotoxicity against human RD cells assessed as reduction in cell viability incubated for 24 hrs by MTT assay; details: rd
# [4] = Acute toxicity in juvenile zebrafish assessed as fatality rate at 200 uM after 24 hrs; details: in vivo
# [5] = Acute toxicity in juvenile zebrafish assessed as fatality rate at 20 uM after 24 hrs; details: in vivo
# [6] = Subacute toxicity in PND4 Sprague-Dawley rat assessed as animal survival at 30 to 50 mg/kg/day, po administered via gavage for 14 days and measured for 28 days; format: organism-based; details: in vivo
# [7] = Subacute toxicity in PND4 Sprague-Dawley rat assessed as irreversible opaqueness of lens at 30 to 50 mg/kg/day, po administered via gavage for 14 days and measured for 28 days; format: organism-based; details: in vivo, 672 h
# [8] = Subacute toxicity in PND14 Sprague-Dawley rat assessed as development of opaque lens at 100 mg/kg/day, po administered via gavage for 14 days and measured for 28 days; format: organism-based; details: in vivo, 672 h
# [9] = Subacute toxicity in PND14 Sprague-Dawley rat assessed as quadriplegia at 100 mg/kg/day, po administered via gavage for 14 days and measured for 28 days; format: organism-based; details: in vivo, 672 h
# [10] = Subacute toxicity in PND14 Sprague-Dawley rat assessed as hair loss at 100 mg/kg/day, po administered via gavage for 14 days and measured for 28 days; format: organism-based; details: in vivo, 672 h
# [11] = Subacute toxicity in PND14 Sprague-Dawley rat assessed as lens fiber loosening and vacuolar degeneration at 100 mg/kg/day, po administered via gavage for 14 days and measured at day 28 by hematoxylin and eosin staining based histopathological analysis; format: organism-based; details: in vivo, 336 h
# [12] = Subacute toxicity in PND21 Sprague-Dawley rat assessed as development of opaque lens at 100 mg/kg/day, po administered via gavage for 14 days and measured for 28 days; format: organism-based; details: in vivo, 672 h
# [13] = Metabolic stability in Sprague-Dawley rat liver microsomes assessed as intrinsic clearance measured upto 300 mins in presence of NADP+ by HPLC analysis
# [14] = Bioavailability in Sprague-Dawley rat at 5 mg/kg, ip administered as single dose measured upto 24 hrs by LC-MS/MS analysis; details: in vivo
# [15] = AUC (0 to t) in Sprague-Dawley rat at 1 mg/kg, iv administered as single dose measured upto 24 hrs by LC-MS/MS analysis; format: ADME, organism-based; details: in vivo
# [16] = AUC (0 to t) in Sprague-Dawley rat at 5 mg/kg, po administered as single dose measured upto 24 hrs by LC-MS/MS analysis; format: ADME, organism-based; details: in vivo
# [17] = Apparent half-life of the terminal disposition phase in Sprague-Dawley rat at 1 mg/kg, iv administered as single dose measured upto 24 hrs by LC-MS/MS analysis; format: ADME, organism-based; details: in vivo, read-out: t1/2 lambda z (converted)
# [18] = Tmax in Sprague-Dawley rat at 5 mg/kg, po administered as single dose measured upto 24 hrs by LC-MS/MS analysis; format: ADME, organism-based; details: in vivo
# [19] = Apparent clearance during terminal phase in Sprague-Dawley rat at 1 mg/kg, iv administered as single dose measured upto 24 hrs by LC-MS/MS analysis; format: ADME, organism-based; details: in vivo
# [20] = Apparent clearance during terminal phase in Sprague-Dawley rat at 5 mg/kg, po administered as single dose measured upto 24 hrs by LC-MS/MS analysis; format: ADME, organism-based; details: in vivo, read-out: CLz/F (converted)
# [21] = Cmax in Sprague-Dawley rat at 1 mg/kg, iv administered as single dose measured upto 24 hrs by LC-MS/MS analysis; format: ADME, organism-based; design: dose 1 mg/kg, route intravenous; details: in vivo
# [22] = Cmax in Sprague-Dawley rat at 5 mg/kg, po administered as single dose measured upto 24 hrs by LC-MS/MS analysis; format: ADME, organism-based; design: dose 5 mg/kg, route oral; details: in vivo
# [23] = Oral bioavailability in Sprague-Dawley rat at 5 mg/kg administered as single dose measured upto 24 hrs by LC-MS/MS analysis; format: ADME, organism-based; details: in vivo
# Enterovirus A71 = assay: Antiviral activity against Enterovirus 71 genotype C4 infected in BALB/c mouse assessed as protection rate at 10 mg/kg/day, ip qd for 7 days administration starting from 48 hrs post-infection and measured for 14 days; format: functional
# [24] = Acute toxicity in juvenile zebrafish assessed as fatality rate at 50 uM after 24 hrs; details: in vivo
# [25] = Acute toxicity in juvenile zebrafish assessed as fatality rate at 100 uM after 24 hrs; details: in vivo
# [26] = Acute toxicity in juvenile zebrafish assessed as fatality rate at 20 uM after 48 hrs; details: in vivo
# [27] = Acute toxicity in juvenile zebrafish assessed as fatality rate at 50 uM after 48 hrs; details: in vivo
# [28] = Acute toxicity in juvenile zebrafish assessed as fatality rate at 100 uM after 48 hrs; details: in vivo
# [29] = Acute toxicity in juvenile zebrafish assessed as fatality rate at 200 uM after 48 hrs; details: in vivo
# [30] = Subacute toxicity in PND7 Sprague-Dawley rat assessed as animal survival at 30 to 50 mg/kg/day, po administered via gavage for 14 days and measured for 28 days; format: organism-based; details: in vivo
# [31] = Subacute toxicity in PND7 Sprague-Dawley rat assessed as irreversible opaqueness of lens at 30 to 50 mg/kg/day, po administered via gavage for 14 days and measured for 28 days; format: organism-based; details: in vivo, 672 h
# [32] = Subacute toxicity in PND21 Sprague-Dawley rat assessed as quadriplegia at 100 mg/kg/day, po administered via gavage for 14 days and measured for 28 days; format: organism-based; details: in vivo, 672 h
# [33] = Subacute toxicity in PND21 Sprague-Dawley rat assessed as hair loss at 100 mg/kg/day, po administered via gavage for 14 days and measured for 28 days; format: organism-based; details: in vivo, 672 h
# [34] = rat, in vivo, ip, 5 mg/kg, 24 h
# Description: AUC (0 to t) in Sprague-Dawley rat at 5 mg/kg, ip administered as single dose measured upto 24 hrs by LC-MS/MS analysis
# in vivo [35] = details: Sprague-Dawley, rat, ip, 5 mg/kg
# Description: Apparent half-life of the terminal disposition phase in Sprague-Dawley rat at 5 mg/kg, ip administered as single dose measured upto 24 hrs by LC-MS/MS analysis
# in vivo [36] = details: Sprague-Dawley, rat, ip, 5 mg/kg; remark: listed apart in the source
# Description: Tmax in Sprague-Dawley rat at 5 mg/kg, ip administered as single dose measured upto 24 hrs by LC-MS/MS analysis
# in vivo [37] = details: Sprague-Dawley, rat, ip, 5 mg/kg; remark: listed apart in the source
# Description: Apparent clearance during terminal phase in Sprague-Dawley rat at 5 mg/kg, ip administered as single dose measured upto 24 hrs by LC-MS/MS analysis
# in vivo [38] = details: Sprague-Dawley, rat, ip, 5 mg/kg; remark: listed apart in the source
# Description: Cmax in Sprague-Dawley rat at 5 mg/kg, ip administered as single dose measured upto 24 hrs by LC-MS/MS analysis
# in vivo [39] = details: zebrafish
# Description: Acute toxicity in juvenile zebrafish assessed as fatality rate at 150 uM after 24 hrs
# in vivo [40] = details: zebrafish; remark: listed apart in the source
# Description: Acute toxicity in juvenile zebrafish assessed as fatality rate at 150 uM after 48 hrs
compound,measurement,setting,value
CCO/N=C/c1ccc(OCCC(C)CCN2CCN(c3ccnc(N)c3)C2=O)cc1 (stereo unspecified),half-life,[1],2.99 h
same,pEC50,[2],10.60
same,CC50 at 24 h,[3],29.4 µM
same,"mortality at 24 h, 200 µM",[4],100%
same,"mortality at 24 h, 20 µM",[5],100%
same,survival at 672 h,[6],100%
same,Activity,[7],Toxic
same,Activity,[8],Toxic
same,Activity,[9],Toxic
same,Activity,[10],Toxic
same,Activity,[11],Toxic
same,Activity,[12],Toxic
same,microsomal CLint at 5 h,[13],38.9 µL/min/mg
same,bioavailability at 24 h,[14],85%
same,AUCt,[15],60.8 ng·h/mL
same,AUCt,[16],222 ng·h/mL
same,half-life,[17],0.5 h
same,Tmax,[18],1 h
same,CLz/F,[19],13.2 mL/min/kg
same,CL/F,[20],1600 mL/min/kg
same,Cmax,[21],23.3 ng/mL
same,Cmax,[22],81.8 ng/mL
same,bioavailability,[23],73.3%
same,Activity,Enterovirus A71,100%
same,"mortality at 24 h, 50 µM",[24],100%
same,"mortality at 24 h, 100 µM",[25],100%
same,"mortality at 48 h, 20 µM",[26],100%
same,"mortality at 48 h, 50 µM",[27],100%
same,"mortality at 48 h, 100 µM",[28],100%
same,"mortality at 48 h, 200 µM",[29],100%
same,survival at 672 h,[30],100%
same,Activity,[31],Toxic
same,Activity,[32],Toxic
same,Activity,[33],Toxic
same,AUCt,[34],258 ng·h/mL
same,half-life at 24 h,in vivo [35],2.64 h
same,Tmax at 24 h,in vivo [36],0.5 h
same,CL/F at 24 h,in vivo [37],381 mL/min/kg
same,Cmax at 24 h,in vivo [38],149 ng/mL
same,"mortality at 24 h, 150 µM",in vivo [39],100%
same,"mortality at 48 h, 150 µM",in vivo [40],100%
